Results as given in patent publication US10076503B2 (priority 2014, dated 2018).

Tests used:
clinical = details: human, in vivo
Method: Upon oral administration, methylphenidate is rapidly and completely absorbed from the gastrointestinal tract. Peak concentrations occur 1 to 2 hours after dose administration. […] When methylphenidate and cocaine are administered intravenously, their pharmacokinetics are quite similar—the percentage of each drug taken up by the brain and their rates of uptake are parallel, although the clearance from the brain of cocaine is faster than that of methylphenidate. The receptor-binding affinities for cocaine and methylphenidate are similar at the dopamine transporter in the basal ganglia and the striatum. […] Thus it appears that abuse may be related to a rapid surge in dopamine levels in the striatum. […] The consequence of the slow increase in dopamine is the absence of a “high”, and the consequence of the long T1/2 is that serum concentration gradually increases to a steady state.

adults with ADHD = assay type: in vivo, human
Method: The study consisted of three periods including Screening, Treatment, and Washout/Follow-up, as described below. Efficacy was evaluated using the ADHD Rating Scale Version IV (ADHD RS-IV) with adult prompts. Effects on cognition were evaluated using the clinical data repository system. Safety and tolerability were monitored throughout the study by collection of physical examinations, 12-lead electrocardiograms (ECG), vital signs, adverse events (AEs), hematology, blood chemistry, urinalysis, Insomnia Severity Index (ISI), and Columbia—Suicide Severity Rating Scale (C-SSRS).
Subjects self-administered the study drug at home on Days 1 through 28, at approximately the same time each night. After Day 1 subjects returned to the clinic on Days 8, 15, 22, and 29. Beginning at Day 1 and at every visit during the treatment period, the ADHD RS-IV, Wender-Reimherr Adult Attention Deficit Disorder Scale (WRAADDS), and clinical global impression—severity (CGI-S) were completed. The clinical data repository system was administered at Baseline, and Days 15 and 29.
At Days 36 and 43, subjects returned to the clinic and the ADHD RS-IV, WRAADDS, and CGI-S were completed. The clinical data repository system was completed on Day 43.

DAT sites = biological target: T1, DAT sites (Homo sapiens, UniProt Q01959); test: DAT site occupancy versus serum concentration (other studies, not shown); details: in vivo
T1 construct: from tissue; host or cells: brain in vivo (my inference)
T1 sequence (Q01959 whole entry): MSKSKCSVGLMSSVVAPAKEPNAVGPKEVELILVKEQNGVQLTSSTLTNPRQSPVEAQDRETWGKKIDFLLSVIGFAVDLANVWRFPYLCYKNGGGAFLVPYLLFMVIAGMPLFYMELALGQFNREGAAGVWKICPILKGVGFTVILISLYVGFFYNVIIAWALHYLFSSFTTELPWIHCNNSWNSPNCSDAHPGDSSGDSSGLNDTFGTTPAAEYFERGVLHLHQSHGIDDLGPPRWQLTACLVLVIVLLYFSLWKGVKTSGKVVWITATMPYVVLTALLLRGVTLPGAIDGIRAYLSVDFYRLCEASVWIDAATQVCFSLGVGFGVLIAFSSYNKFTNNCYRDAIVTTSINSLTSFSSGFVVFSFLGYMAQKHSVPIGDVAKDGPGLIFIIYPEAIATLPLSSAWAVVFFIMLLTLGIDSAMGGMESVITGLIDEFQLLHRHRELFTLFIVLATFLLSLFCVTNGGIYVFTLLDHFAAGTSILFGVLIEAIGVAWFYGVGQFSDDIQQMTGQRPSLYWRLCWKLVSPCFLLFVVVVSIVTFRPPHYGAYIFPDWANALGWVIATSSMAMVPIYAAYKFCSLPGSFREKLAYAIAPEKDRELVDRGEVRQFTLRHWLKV

[1] = system: healthy recreational stimulant users; test: single-dose crossover abuse potential study, placebo- and methylphenidate-controlled; assay type: in vivo, human
Description: A single-dose, randomized, double-blind, double-dummy, placebo- and active-controlled crossover study with 6 Treatment Visits per subject was undertaken. […] Subjects participated in a medical screening visit (Visit 1), one 4-day inpatient qualification phase (Visit 2), a treatment phase (Visits 3 to 8) consisting of six 5-day inpatient treatment visits, and a safety follow-up visit (Visit 9). Within 21 days of the screening visit, subjects were enrolled and attended a qualification phase in which they received either 60 mg methylphenidate or matching placebo in a randomized double-blind crossover manner. Dosing times were separated by approximately 24 hours to ensure that subjects could discriminate and show positive effects of the positive control.
Healthy female and male subjects aged 18 to 55 years (inclusive), who were recreational central nervous system (CNS) stimulant users with cocaine experience and who had passed the methylphenidate qualification phase, were randomized into the treatment.
Drug administration occurred on Day 1 of each treatment visit followed by pharmacodynamic (PD), pharmacokinetic (PK), and safety assessments conducted for up to 72 hours post-dose. […] Subjects were randomized to one of 6 treatment sequences according to a 6×6 William square design. The capsules received at each treatment visit (Visits 3 to 8) were identical. Serial pharmacodynamic and pharmacokinetic evaluations were taken at each treatment visit. Pharmacokinetic analysis was performed for dasotraline. Safety monitoring included regular assessments of vital signs, clinical laboratory tests, and adverse events (AEs), as well as continuous telemetry monitoring for at least 12 hours post-dose. Treatment visits were separated by a washout interval of at least 21 days (from the day of dosing). Subjects returned for the safety follow-up visit within approximately 14 days following the end of the last treatment visit.

[2] = cited from earlier work
[3] = methylphenidate 40 mg and 80 mg, single dose

N[C@@H]1CC[C@@H](c2ccc(Cl)c(Cl)c2)c2ccccc21 [dasotraline, (1R,4S)-4-(3,4-Dichlorophenyl)-1,2,3,4-tetrahydronaphthalen-1-amine]
Cmax (clinical; 4 mg): ~1.5 ng/mL
Tmax (clinical; 4 mg): > 6 h
Tmax (clinical; po): 10 to 12 h
half-life (clinical; po): 47 to 77 h
anxiety leading to discontinuation (adults with ADHD; 4 mg once daily): 2.6%
computerized cognitive assessment battery: attention, working memory, episodic memory (adults with ADHD; 4 mg once daily): no significant main effects
insomnia leading to discontinuation (adults with ADHD; 4 mg once daily): 2.6%
Wender-Reimherr ADD total score (adults with ADHD; 4 mg once daily versus placebo): did not improve enough to achieve statistical significance
treatment-emergent adverse events (TEAEs), percentage (adults with ADHD; 4 mg once daily versus placebo): higher than the percentage of TEAEs in the placebo group
Wender-Reimherr subscore for the attention difficulties component (adults with ADHD; 4 mg once daily versus placebo, week 4): statistically significant improvement
serum concentration as a function of time (adults with ADHD; 4 mg once daily, 4 weeks): began to plateau by week four
ADHD RS-IV total score, LS mean change from baseline versus placebo (adults with ADHD; 4 mg once daily, to week four, p<0.05, FIG. 1): statistically different at weeks three and four
CGI-S score, LS mean change from baseline versus placebo (adults with ADHD; 4 mg once daily, to week four, p<0.05, FIG. 2): statistically different at weeks three and four
incidence of adverse events rated as severe (adults with ADHD; 4 mg once daily, placebo group 2.7%): 6%
mean concentrations at steady state (adults with ADHD; 4 mg/d): 6 ng/mL
circulating DHPG levels (adults with ADHD; 4 mg/d, indicative of central inhibition of norepinephrine transporters): decreased circulating DHPG levels
time of administration to statistically significant improvement in ADHD (adults with ADHD; oral dosage form containing 4 mg): about two to three
serum concentration at which 50% DAT site occupancy was achieved (DAT sites): 5 to 6 ng/mL
differences from placebo on pharmacodynamic endpoints ([1]; 16 mg single dose): very few statistically significant differences from placebo
effects on most pharmacodynamic endpoints versus placebo ([1]; dasotraline 8, 16 and 36 mg, single dose): not significantly different from those of placebo

COC(=O)C(c1ccccc1)C1CCCCN1 (stereo not shown) [methylphenidate]
Drug Similarity Visual Analog Scale [1, 3]: strongly identified as a stimulant
majority of pharmacodynamic endpoints incl. Drug Liking Visual Analog Scale, versus placebo [1, 3]: significant differences compared to placebo
secondary stimulant measures [1, 3]: strong stimulant effects
pharmacokinetic half-life ([2]; in vivo): approximately 2 hours
time of peak concentrations after dose administration ([2]; oral administration): 1 to 2 h
